Experimental data taken from ChEMBL document CHEMBL1201862, “PubChem BioAssay data set” (2004).
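Cultured in 96-well plates, cells were exposed to test compound for 48 hours across five concentrations. Abbreviation: GI50, concentration required for 50% inhibition of growth.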 Calls of active or inactive are those of the source. Rule as the data show it: active = GI50 up to about 1.1 µM and inactive = higher.

Assays:
Test in all cases: NCI anticancer screen, dose series, 48 h
786-0 = tested on: 786-0
A498 = tested on: A498
A549 = tested on: A549
ACHN = tested on: ACHN
CAKI-1 = tested on: CAKI-1
CCRF-CEM = tested on: CCRF-CEM
COLO 205 = tested on: COLO 205
DLD-1 = tested on: DLD-1
DMS-114 = tested on: DMS-114
DMS-273 = tested on: DMS-273
EKVX = tested on: EKVX
HCC 2998 = tested on: HCC 2998
HCT-116 = tested on: HCT-116
HCT-15 = tested on: HCT-15
HL-60 = tested on: HL-60
HOP-18 = tested on: HOP-18
HOP-62 = tested on: HOP-62
HT-29 = tested on: HT-29
IGROV-1 = tested on: IGROV-1
K562 = tested on: K562
KM-20L2 = tested on: KM-20L2
KM12 = tested on: KM12
LOX IMVI = tested on: LOX IMVI
LXFL 529 = tested on: LXFL 529
M14 = tested on: M14
M19-MEL = tested on: M19-MEL
MOLT-4 = tested on: MOLT-4
Malme-3M = tested on: Malme-3M
NCI-H226 = tested on: NCI-H226
NCI-H23 = tested on: NCI-H23
NCI-H460 = tested on: NCI-H460
NCI-H522 = tested on: NCI-H522
OVCAR-3 = tested on: OVCAR-3
OVCAR-4 = tested on: OVCAR-4
OVCAR-5 = tested on: OVCAR-5
OVCAR-8 = tested on: OVCAR-8
RXF 393 = tested on: RXF 393
SF-268 = tested on: SF-268
SF-295 = tested on: SF-295
SF-539 = tested on: SF-539
SK-MEL-28 = tested on: SK-MEL-28
SK-MEL-5 = tested on: SK-MEL-5
SK-OV-3 = tested on: SK-OV-3
SN12C = tested on: SN12C
SNB-19 = tested on: SNB-19
SNB-75 = tested on: SNB-75
SNB-78 = tested on: SNB-78
SW-620 = tested on: SW-620
TK-10 = tested on: TK-10
U-251 = tested on: U-251
UACC-257 = tested on: UACC-257
UACC-62 = tested on: UACC-62
XF498 = tested on: XF498
HOP-92 = tested on: HOP-92
RPMI-8226 = tested on: RPMI-8226
SK-MEL-2 = tested on: SK-MEL-2
UO-31 = tested on: UO-31
SR = tested on: SR

In the case of `CCOC(=O)c1nc2ccc(Cl)cc2c2c1CCO2`, the GI50 (786-0) is reported as > 100 µM (inactive), the GI50 (A498) is reported as 31 µM (inactive) and the GI50 (A549) is reported as > 100 µM (inactive). For the same compound, the GI50 (ACHN) was 55 µM (inactive), the GI50 (CAKI-1) was 51.8 µM (inactive) and the GI50 (CCRF-CEM) was 79.4 µM (inactive). The GI50 (COLO 205) was > 100 µM (inactive), the GI50 (DLD-1) was > 100 µM (inactive) and the GI50 (DMS-114) was 64.3 µM (inactive). For the same compound, the GI50 (DMS-273) was > 100 µM (inactive), the GI50 (EKVX) was > 100 µM (inactive) and the GI50 (HCC 2998) was > 100 µM (inactive). The GI50 (HCT-116) was 57 µM (inactive), the GI50 (HCT-15) was 99.1 µM and the GI50 (HL-60) was 18.2 µM (inactive). The GI50 (HOP-18) was 23.6 µM (inactive), the GI50 (HOP-62) was 82.4 µM (inactive) and the GI50 (HT-29) was > 100 µM (inactive). The GI50 (IGROV-1) was 58.2 µM (inactive), the GI50 (K562) was 91.2 µM (inactive) and the GI50 (KM-20L2) was > 100 µM (inactive). The GI50 (KM12) was > 100 µM (inactive), the GI50 (LOX IMVI) was 59.6 µM (inactive) and the GI50 (LXFL 529) was 51.4 µM (inactive). The GI50 (M14) was > 100 µM (inactive), the GI50 (M19-MEL) was > 100 µM (inactive) and the GI50 (MOLT-4) was 53.5 µM (inactive). The GI50 (Malme-3M) was > 100 µM (inactive), the GI50 (NCI-H226) was > 100 µM (inactive) and the GI50 (NCI-H23) was > 100 µM (inactive). For the same compound, the GI50 (NCI-H460) was > 100 µM (inactive), the GI50 (NCI-H522) was 34.7 µM (inactive) and the GI50 (OVCAR-3) was > 100 µM (inactive). For the same compound, the GI50 (OVCAR-4) was 70.1 µM (inactive), the GI50 (OVCAR-5) was > 100 µM (inactive) and the GI50 (OVCAR-8) was > 100 µM (inactive). For the same compound, the GI50 (RXF 393) was 41.5 µM (inactive), the GI50 (SF-268) was 90.8 µM (inactive) and the GI50 (SF-295) was > 100 µM (inactive). The GI50 (SF-539) was 95.1 µM (inactive), the GI50 (SK-MEL-28) was > 100 µM (inactive) and the GI50 (SK-MEL-5) was 55.6 µM (inactive). For the same compound, the GI50 (SK-OV-3) was 76 µM (inactive), the GI50 (SN12C) was 82 µM (inactive) and the GI50 (SNB-19) was > 100 µM (inactive). For the same compound, the GI50 (SNB-75) was 24 µM (inactive), the GI50 (SNB-78) was > 100 µM (inactive) and the GI50 (SW-620) was > 100 µM (inactive). For the same compound, the GI50 (TK-10) was 76.7 µM (inactive), the GI50 (U-251) was 74.6 µM (inactive) and the GI50 (UACC-257) was > 100 µM (inactive). The GI50 (UACC-62) was 87.7 µM (inactive) and the GI50 (XF498) was 72.8 µM (inactive).
In the case of `Cc1ccc(C2[C@H]3C(=O)N(c4ccc(Cc5ccc(N6C(=O)[C@@H]7ON(c8ccccc8)C(c8ccc(C)cc8)[C@@H]7C6=O)cc5)cc4)C(=O)[C@H]3ON2c2ccccc2)cc1` (stereo not given in full), the GI50 (786-0) is reported as > 100 µM (inactive), the GI50 (A498) is reported as > 100 µM (inactive) and the GI50 (A549) is reported as > 100 µM (inactive). The GI50 (ACHN) was > 100 µM (inactive), the GI50 (CAKI-1) was > 100 µM (inactive) and the GI50 (CCRF-CEM) was > 100 µM (inactive). The GI50 (COLO 205) was > 100 µM (inactive), the GI50 (DLD-1) was > 100 µM (inactive) and the GI50 (DMS-114) was > 100 µM (inactive). For the same compound, the GI50 (DMS-273) was > 100 µM (inactive), the GI50 (HCC 2998) was > 100 µM (inactive) and the GI50 (HCT-15) was greater than 100 µM. The GI50 (HL-60) was > 100 µM (inactive), the GI50 (HOP-18) was > 100 µM (inactive) and the GI50 (HOP-62) was > 100 µM (inactive). The GI50 (HOP-92) was > 100 µM (inactive), the GI50 (HT-29) was > 100 µM (inactive) and the GI50 (IGROV-1) was > 100 µM (inactive). For the same compound, the GI50 (K562) was > 100 µM (inactive), the GI50 (KM-20L2) was > 100 µM (inactive) and the GI50 (KM12) was > 100 µM (inactive). For the same compound, the GI50 (LOX IMVI) was > 100 µM (inactive), the GI50 (LXFL 529) was > 100 µM (inactive) and the GI50 (M14) was 91.6 µM (inactive). For the same compound, the GI50 (M19-MEL) was > 100 µM (inactive), the GI50 (MOLT-4) was > 100 µM (inactive) and the GI50 (Malme-3M) was > 100 µM (inactive). The GI50 (NCI-H226) was > 100 µM (inactive), the GI50 (NCI-H23) was > 100 µM (inactive) and the GI50 (NCI-H460) was > 100 µM (inactive). The GI50 (OVCAR-3) was > 100 µM (inactive), the GI50 (OVCAR-4) was > 100 µM (inactive) and the GI50 (OVCAR-5) was > 100 µM (inactive). For the same compound, the GI50 (RPMI-8226) was > 100 µM (inactive), the GI50 (RXF 393) was > 100 µM (inactive) and the GI50 (SF-268) was > 100 µM (inactive). For the same compound, the GI50 (SF-295) was > 100 µM (inactive), the GI50 (SF-539) was > 100 µM (inactive) and the GI50 (SK-MEL-28) was > 100 µM (inactive). For the same compound, the GI50 (SK-MEL-2) was > 100 µM (inactive), the GI50 (SK-MEL-5) was > 100 µM (inactive) and the GI50 (SK-OV-3) was > 100 µM (inactive). For the same compound, the GI50 (SN12C) was > 100 µM (inactive), the GI50 (SNB-75) was 99.8 µM (inactive) and the GI50 (SW-620) was > 100 µM (inactive). For the same compound, the GI50 (U-251) was > 100 µM (inactive), the GI50 (UACC-257) was > 100 µM (inactive) and the GI50 (UACC-62) was > 100 µM (inactive). For the same compound, the GI50 (UO-31) was > 100 µM (inactive) and the GI50 (XF498) was > 100 µM (inactive).
`Nc1cc(O)nc(SC2=NC(N)CC(O)C2)n1` (stereo not given) was tested, and the GI50 (786-0) was > 100 µM (inactive), the GI50 (ACHN) was > 100 µM (inactive) and the GI50 (CAKI-1) was > 100 µM (inactive). The GI50 (CCRF-CEM) was > 100 µM (inactive), the GI50 (COLO 205) was > 100 µM (inactive) and the GI50 (DLD-1) was > 100 µM (inactive). For the same compound, the GI50 (DMS-114) was > 100 µM (inactive), the GI50 (DMS-273) was > 100 µM (inactive) and the GI50 (EKVX) was > 100 µM (inactive). The GI50 (HCC 2998) was > 100 µM (inactive), the GI50 (HCT-15) was greater than 100 µM and the GI50 (HOP-18) was > 100 µM (inactive). The GI50 (HOP-62) was > 100 µM (inactive), the GI50 (HOP-92) was > 100 µM (inactive) and the GI50 (HT-29) was > 100 µM (inactive). For the same compound, the GI50 (IGROV-1) was > 100 µM (inactive), the GI50 (K562) was > 100 µM (inactive) and the GI50 (KM-20L2) was > 100 µM (inactive). The GI50 (KM12) was > 100 µM (inactive), the GI50 (LOX IMVI) was > 100 µM (inactive) and the GI50 (LXFL 529) was > 100 µM (inactive). For the same compound, the GI50 (M14) was > 100 µM (inactive), the GI50 (M19-MEL) was > 100 µM (inactive) and the GI50 (MOLT-4) was > 100 µM (inactive). For the same compound, the GI50 (Malme-3M) was > 100 µM (inactive), the GI50 (NCI-H226) was > 100 µM (inactive) and the GI50 (NCI-H23) was > 100 µM (inactive). The GI50 (NCI-H460) was > 100 µM (inactive), the GI50 (NCI-H522) was > 100 µM (inactive) and the GI50 (OVCAR-3) was > 100 µM (inactive). The GI50 (OVCAR-4) was > 100 µM (inactive), the GI50 (OVCAR-5) was > 100 µM (inactive) and the GI50 (OVCAR-8) was > 100 µM (inactive). The GI50 (RPMI-8226) was > 100 µM (inactive), the GI50 (SF-295) was > 100 µM (inactive) and the GI50 (SF-539) was > 100 µM (inactive). For the same compound, the GI50 (SK-MEL-28) was > 100 µM (inactive), the GI50 (SK-MEL-2) was > 100 µM (inactive) and the GI50 (SK-MEL-5) was > 100 µM (inactive). The GI50 (SK-OV-3) was > 100 µM (inactive), the GI50 (SN12C) was > 100 µM (inactive) and the GI50 (SNB-19) was > 100 µM (inactive). The GI50 (SNB-75) was > 100 µM (inactive), the GI50 (SNB-78) was > 100 µM (inactive) and the GI50 (SR) was > 100 µM (inactive). For the same compound, the GI50 (SW-620) was 42.5 µM (inactive), the GI50 (TK-10) was > 100 µM (inactive) and the GI50 (U-251) was > 100 µM (inactive). The GI50 (UACC-257) was > 100 µM (inactive), the GI50 (UACC-62) was > 100 µM (inactive) and the GI50 (UO-31) was > 100 µM (inactive). The GI50 (XF498) was > 100 µM (inactive).
